US6867207B2, “IL-5 inhibiting 6-azauracil derivatives” (Janssen Pharmaceutica N.V., priority 1997, dated 2005)

System: IL-5 production
Experiment: In vitro inhibition of IL-5 production in human blood (phytohemagglutinin-stimulated whole blood, ELISA);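 also: values marked with an asterisk were tested at 10 µM and unmarked values at 1 µM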
Format: cell-based
Details: test dose 1×10^−6 M, 48 hours
Outline: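 Percent inhibition of IL-5, quantified by ELISA in cell-free supernatants, is given at a single dose of 1×10^−6 M (or 1×10^−5 M). Threefold-diluted human whole blood from healthy men received compound for 60 min at 37° C before 48 h PHA stimulation at 2 μg/mL.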

SMILES	% inh. (percentage inhibition of IL-5 production) [%]
CS(=O)(=O)Nc1cccc(-c2nnc(C(c3ccc(Cl)cc3)c3c(Cl)cc(-n4ncc(=O)[nH]c4=O)cc3Cl)o2)c1 (racemic) [Compound 208]	48
O=c1cnn(-c2cc(Cl)c(C(Sc3nccc(N(CCO)CCO)n3)c3ccc(Cl)cc3)c(Cl)c2)c(=O)[nH]1 (racemic) [Compound 358]	63
O=c1cnn(-c2cc(Cl)c(C(c3ccc(Cl)cc3)c3nc(-c4ccc(Cl)c(Cl)c4)cs3)c(Cl)c2)c(=O)[nH]1 (racemic) [Comp 28]	73
O=c1cnn(-c2cc(Cl)c(C(c3ccc(Cl)cc3)c3nnc(-c4cccc(Cl)c4)o3)c(Cl)c2)c(=O)[nH]1 (racemic) [Compound 157]	85
CC(c1ccc(Cl)c(C(F)(F)F)c1)(c1nc(-c2ccccc2)cs1)c1c(Cl)cc(-n2ncc(=O)[nH]c2=O)cc1Cl (racemic) [Comp 23]	83
O=c1cnn(-c2cc(Cl)c(C(Sc3nc(-c4cccs4)cs3)c3ccc(Cl)c(C(F)(F)F)c3)c(Cl)c2)c(=O)[nH]1 (stereo not shown) [Compound 390]	89
O=c1cnn(-c2ccc(C(Sc3nc4cccnc4s3)c3ccc(Cl)cc3)c(Cl)c2)c(=O)[nH]1 (racemic) [Compound 81]	76
Cc1sc(C(c2ccc(Cl)cc2)c2c(Cl)cc(-n3ncc(=O)[nH]c3=O)cc2Cl)nc1-c1c(F)cccc1F (racemic) [Comp 268]	83
Cn1c(C(c2ccc(Cl)cc2)c2c(Cl)cc(-n3ncc(=O)[nH]c3=O)cc2Cl)cnc1-c1ccccc1 (stereo not shown) [Comp 430]	89
Cc1nc(-c2ccccc2)c(C(c2ccc(Cl)cc2)c2c(Cl)cc(-n3ncc(=O)[nH]c3=O)cc2Cl)s1 (racemic) [Compound 136]	93
O=c1cnn(-c2ccc(C(c3ccc(Cl)cc3)c3nc4sccn4c3-c3ccccc3)c(Cl)c2)c(=O)[nH]1 (stereo not shown) [Comp 432]	82
O=c1cnn(-c2cc(Cl)c(C(Sc3nc4ccccc4s3)c3ccc(Cl)cc3)c(Cl)c2)c(=O)[nH]1 (stereo not shown) [Compound 384]	95
O=c1cnn(-c2cc(Cl)c(C(Sc3nc4ccccc4o3)c3ccc(Cl)cc3)c(Cl)c2)c(=O)[nH]1 (stereo not shown) [Compound 383]	78
O=c1cnn(-c2cc(Cl)c(C(c3ccc(Cl)cc3)c3nnc(-c4cccnc4)o3)c(Cl)c2)c(=O)[nH]1 (racemic) [Compound 201]	87
Cc1sc(C(C)(c2ccc(Cl)c(C(F)(F)F)c2)c2c(Cl)cc(-n3ncc(=O)[nH]c3=O)cc2Cl)nc1-c1ccccc1 (racemic) [Comp 234]	83
[N-]=[N+]=Nc1ccc(-c2nnc(C(c3ccc(Cl)cc3)c3c(Cl)cc(-n4ncc(=O)[nH]c4=O)cc3Cl)o2)cc1 (racemic) [Compound 185]	81
CN1CCN(c2ccc(-c3nnc(C(c4ccc(Cl)cc4)c4c(Cl)cc(-n5ncc(=O)[nH]c5=O)cc4Cl)o3)cc2)CC1 (racemic) [Compound 199]	43
O=c1cnn(-c2cc(Cl)c(C(c3ccc(Cl)cc3)c3nnc(-c4ccccc4)o3)c(Cl)c2)c(=O)[nH]1 (stereo not shown) [Compound 190, (B)-2-[3,5-dichloro-4-[(4-chlorophenyl)(5-phenyl-1,3,4-oxadizol-2-yl)methyl]phenyl]-1,2,4-triazine-3,5(2H,4H)-dione]	83
O=c1cnn(-c2ccc(C(O)(c3ccc(Cl)cc3)c3nc(-c4ccccc4)cs3)c(Cl)c2)c(=O)[nH]1 (racemic) [Comp 34]	58
COC(c1ccc(Cl)cc1)(c1nc2ccccc2s1)c1ccc(-n2ncc(=O)[nH]c2=O)cc1Cl (stereo not shown) [Comp 418]	47
Cc1nc(-c2ccccc2F)c(C(c2ccc(Cl)cc2)c2c(Cl)cc(-n3ncc(=O)[nH]c3=O)cc2Cl)s1 (racemic) [Compound 152]	87
O=c1cnn(-c2cc(Cl)c(C(Sc3nccc(NC(CO)CO)n3)c3ccc(Cl)cc3)c(Cl)c2)c(=O)[nH]1 (racemic) [Compound 361]	28
CNC(=O)Cc1sc(C(c2ccc(Cl)cc2)c2c(Cl)cc(-n3ncc(=O)[nH]c3=O)cc2Cl)nc1-c1ccccc1 (racemic) [Comp 301]	33
Cc1cccc(-c2nnc(C(c3ccc(Cl)cc3)c3c(Cl)cc(-n4ncc(=O)[nH]c4=O)cc3Cl)o2)c1 (racemic) [Compound 178]	78

SMILES	% inh. (percentage inhibition of IL-5 production) [%]
O=c1cnn(-c2cc(Cl)c(C(c3ccc(Cl)cc3)c3csc(-c4ccccc4)n3)c(Cl)c2)c(=O)[nH]1 (racemic) [Compound 363, (±)-2-[3,5-dichloro-4-[(4-chlorophenyl)(2-phenyl-4-thiazoyl)methyl]phenyl]-1,2,4-triazine-3,5(2H,4H)-dione]	91
Cc1nc(-c2ccc(Cl)cc2)c(C(c2ccc(Cl)cc2)c2ccc(-n3ncc(=O)[nH]c3=O)cc2Cl)s1 (racemic) [Compound 149]	89
COc1cc(C)nc(NC(c2ccc(Cl)cc2)c2ccc(-n3ncc(=O)[nH]c3=O)cc2Cl)n1 (racemic) [Compound 42]	57
O=c1cnn(-c2cc(Cl)c(C(c3ccc(Cl)cc3)c3nnc(-c4ccco4)o3)c(Cl)c2)c(=O)[nH]1 (racemic) [Compound 161]	91
Cc1nc(C(c2ccc(Cl)cc2)c2c(Cl)cc(-n3ncc(=O)[nH]c3=O)cc2Cl)sc1-c1ccccc1 (racemic) [Comp 248]	91
O=c1cnn(-c2ccc(C(c3ccc(Cl)cc3)c3sc(-c4ccccc4)nc3-c3ccccc3Cl)c(Cl)c2)c(=O)[nH]1 (racemic) [Compound 144]	40
CC(c1ccc(Cl)c(Cl)c1)(c1nc(-c2ccccc2)cs1)c1c(Cl)cc(-n2ncc(=O)[nH]c2=O)cc1Cl (racemic) [Comp 227]	78
O=c1cnn(-c2cc(Cl)c(C(c3ccc(Cl)cc3)c3nc(-c4cccc(F)c4F)cs3)c(Cl)c2)c(=O)[nH]1 (racemic) [Comp 337]	96
Cc1nc(SC(c2ccc(Cl)cc2)c2ccc(-n3ncc(=O)[nH]c3=O)cc2Cl)nc(O)c1CC1CC1 (racemic) [Compound 338]	−15
CN(C)C(=O)Cc1sc(C(c2ccc(Cl)cc2)c2c(Cl)cc(-n3ncc(=O)[nH]c3=O)cc2Cl)nc1-c1ccccc1 (racemic) [Comp 275]	94
Nc1ccc2nc(SC(c3ccc(Cl)c(C(F)(F)F)c3)c3c(Cl)cc(-n4ncc(=O)[nH]c4=O)cc3Cl)sc2c1 (stereo not shown) [Compound 389]	91
CN1CCC(c2nnc(C(c3ccc(Cl)cc3)c3c(Cl)cc(-n4ncc(=O)[nH]c4=O)cc3Cl)o2)CC1 (racemic) [Compound 195]	7
O=c1cnn(-c2cc(Cl)c(C(c3ccc(Cl)cc3)c3nc4ccccc4s3)c(Cl)c2)c(=O)[nH]1 (stereo not shown) [Comp 421]	86
O=c1cnn(-c2ccc(C(SC3CCCCC3)c3ccc(Cl)cc3)c(Cl)c2)c(=O)[nH]1 (stereo not shown) [Compound 90]	60
O=c1cnn(-c2cc(Cl)c(C(Sc3nc(-c4ccccc4)no3)c3ccc(Cl)cc3)c(Cl)c2)c(=O)[nH]1 (racemic) [Compound 408]	88
O=c1cnn(-c2cc(Cl)c(C(c3ccc(Cl)cc3)c3nc(-c4ccccc4)c(CO)s3)c(Cl)c2)c(=O)[nH]1 (racemic) [Comp 282]	93
O=c1cnn(-c2ccc(C(Sc3nc[nH]n3)c3ccc(Cl)cc3)c(Cl)c2)c(=O)[nH]1 (racemic) [Compound 55]	26
O=c1cnn(-c2cc(Cl)c(C(c3ccc(Cl)cc3)c3nnc(-c4ccccc4)o3)c(Cl)c2)c(=O)[nH]1 (racemic) [Compound 127, (±)-2-[3,5-dichloro-4-[(4-chlorophenyl)(5-phenyl-1,3,4-oxadizol-2-yl)methyl]-phenyl]-1,2,4-triazine-3,5(2H,4H)-dione]	94
CCOC(=O)N1CCN(c2ccnc(SC(c3ccc(Cl)cc3)c3c(Cl)cc(-n4ncc(=O)[nH]c4=O)cc3Cl)n2)CC1 (racemic) [Compound 352]	85
O=c1cnn(-c2cc(Cl)c(C(c3ccc(Cl)cc3)c3nc(-c4cc(Cl)ccc4Cl)cs3)c(Cl)c2)c(=O)[nH]1 (racemic) [Comp 257]	82
O=c1cnn(-c2cc(Cl)c(C(c3ccc(Cl)cc3)c3nc(Cc4ccccc4)cs3)c(Cl)c2)c(=O)[nH]1 (racemic) [Comp 225]	80
Cc1cc(C(C)(c2nc(-c3ccccc3)cs2)c2ccc(-n3ncc(=O)[nH]c3=O)cc2Cl)ccc1Cl (racemic) [Comp 247]	80
CC(c1ccc(Cl)cc1)(c1nnc(-c2ccccc2)o1)c1c(Cl)cc(-n2ncc(=O)[nH]c2=O)cc1Cl (racemic) [Compound 206]	82

Same assay, conditions: test dose 1×10^−6 M, 48 hours, read-out: % inh. (percentage inhibition of IL-5 production)

SMILES	inhibition at 1 µM [%]
O=c1cnn(-c2cc(Cl)c(C(Sc3nccc(N4CCNCC4)n3)c3ccc(Cl)cc3)c(Cl)c2)c(=O)[nH]1 (racemic) [Compound 360, (±)-2-[3,5-dichloro-4-[(4-chlorophenyl)[[4-(1-piperazinyl)-2-pyrimidinyl]thio]methyl]phenyl]-1,2,4-triazine-3,5(2H,4H)-dione monohydrate]	84
O=c1cnn(-c2cc(Cl)c(C(c3ccc(Cl)cc3)c3nccs3)c(Cl)c2)c(=O)[nH]1 (racemic) [Compound 39, (±)-2-[3,5-dichloro-4-[(4-chlorophenyl)-2-thiazolylmethyl]-phenyl]-1,2,4-triazine-3,5(2H,4H)-dione]	68
